Inconclusive results and toxic doses are left out. Rule as the data show it: active = T/C of 150% or more; inactive = T/C below 125%.
System: L1210 leukemia ip in BDF1 mice, survival T/C
Experiment: NCI In Vivo Anticancer Drug Screen. Data for tumor model L1210 Leukemia (intraperitoneal) in B6D2F1 (BDF1) mice
Conditions: endpoint: mean survival time, higher = longer survival
Method in brief: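 Mice bearing the transplanted tumor received compound or vehicle. Survival of the treated group was divided by that of the vehicle-treated control group to give the ratio.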

[1] = dose: 100.0 mg/kg/injection, schedule: Q01DX009 (ip), vehicle: Klucel (hydroxypropylcellulose) (HPC)
[2] = dose: 100.0 mg/kg/injection, schedule: Q04DX003 (ip), vehicle: Klucel (hydroxypropylcellulose) (HPC)
[3] = dose: 200.0 mg/kg/injection, schedule: Q01DX009 (ip), vehicle: Klucel (hydroxypropylcellulose) (HPC)
[4] = dose: 400.0 mg/kg/injection, schedule: Q01DX009 (ip), vehicle: Klucel (hydroxypropylcellulose) (HPC)
[5] = dose: 100.0 mg/kg/injection, schedule: Q04DX003 (ip), vehicle: saline with Tween-80
[6] = dose: 200.0 mg/kg/injection, schedule: Q04DX003 (ip), vehicle: saline with Tween-80
[7] = dose: 100.0 mg/kg/injection, schedule: Q04DX002 (ip), vehicle: saline
[8] = dose: 200.0 mg/kg/injection, schedule: Q04DX002 (ip), vehicle: saline
[9] = dose: 400.0 mg/kg/injection, schedule: Q04DX002 (ip), vehicle: saline
[10] = dose: 100.0 mg/kg/injection, schedule: Q01DX001 (ip), vehicle: Klucel (hydroxypropylcellulose) (HPC)
[11] = dose: 200.0 mg/kg/injection, schedule: Q01DX001 (ip), vehicle: Klucel (hydroxypropylcellulose) (HPC)

Measured: T/C

O=NN(C(=O)Nc1ccccc1)c1ccccc1
inactive: dose: 2.0 mg/kg/injection, schedule: Q01DX001 (ip), vehicle: carboxymethylcellulose (CMC) 106 % of control | dose: 4.0 mg/kg/injection, schedule: Q01DX001 (ip), vehicle: carboxymethylcellulose (CMC) 112 % of control | dose: 6.0 mg/kg/injection, schedule: Q01DX001 (ip), vehicle: carboxymethylcellulose (CMC) 112 % of control | dose: 8.0 mg/kg/injection, schedule: Q01DX001 (ip), vehicle: carboxymethylcellulose (CMC) 110 % of control | dose: 10.0 mg/kg/injection, schedule: Q01DX001 (ip), vehicle: carboxymethylcellulose (CMC) 104 % of control | dose: 12.5 mg/kg/injection, schedule: Q01DX001 (ip), vehicle: carboxymethylcellulose (CMC) 108 % of control | dose: 25.0 mg/kg/injection, schedule: Q01DX001 (ip), vehicle: carboxymethylcellulose (CMC) 100 % of control | dose: 50.0 mg/kg/injection, schedule: Q01DX001 (ip), vehicle: carboxymethylcellulose (CMC) 102 % of control | dose: 100.0 mg/kg/injection, schedule: Q01DX001 (ip), vehicle: carboxymethylcellulose (CMC) 108 % of control

Cc1ccc(S(=O)(=O)NCCCCCC(=O)O)cc1
inactive: [1] 101 % of control | [2] 98 % of control | [3] 101 % of control | dose: 200.0 mg/kg/injection, schedule: Q04DX003 (ip), vehicle: Klucel (hydroxypropylcellulose) (HPC) 94 % of control | [4] 100 % of control | dose: 400.0 mg/kg/injection, schedule: Q04DX003 (ip), vehicle: Klucel (hydroxypropylcellulose) (HPC) 96 % of control

Cc1c2oc3c(C)c(N)cc(C(=O)NC4C(=O)NC(C(C)C)C(=O)N5CCCC5C(=O)N(C)CC(=O)N(C)C(C(C)C)C(=O)OC4C)c3nc-2c(C(=O)NC2C(=O)NC(C(C)C)C(=O)N3CCCC3C(=O)N(C)CC(=O)N(C)C(C(C)C)C(=O)OC2C)c(N)c1=O (stereo unspecified)
inactive: dose: 75.0 micrograms/kg/injection, schedule: Q01DX009 (ip), vehicle: saline + alcohol 121 % of control | dose: 150.0 micrograms/kg/injection, schedule: Q01DX009 (ip), vehicle: saline + alcohol 113 % of control | dose: 200.0 micrograms/kg/injection, schedule: Q01DX009 (ip), vehicle: saline + alcohol 102 % of control | dose: 300.0 micrograms/kg/injection, schedule: Q01DX009 (ip), vehicle: saline + alcohol 90 % of control | dose: 300.0 micrograms/kg/injection, schedule: Q04DX003 (ip), vehicle: saline + alcohol 119 % of control | dose: 800.0 micrograms/kg/injection, schedule: Q04DX003 (ip), vehicle: saline + alcohol 106 % of control | dose: 1200.0 micrograms/kg/injection, schedule: Q04DX003 (ip), vehicle: saline + alcohol 87 % of control

COc1ccc(CC(=O)OOC(C)(C)C)cc1
inactive: [5] 100 % of control | [6] 92 % of control

CC(=O)OCC(C)(C)N
inactive: [7] 89 % of control | [8] 110 % of control | [9] 95 % of control

CC1=CC(=O)CC(C)C1 (stereo unspecified)
inactive: dose: 100.0 mg/kg/injection, schedule: Q01DX001 (ip), vehicle: saline 111 % of control | dose: 200.0 mg/kg/injection, schedule: Q01DX001 (ip), vehicle: saline 94 % of control | dose: 400.0 mg/kg/injection, schedule: Q01DX001 (ip), vehicle: saline 103 % of control

[NH-]c1ccccc1C(=O)O.[NH-]c1ccccc1C(=O)O.[Zn+2]
inactive: dose: 12.5 mg/kg/injection, schedule: Q01DX009 (ip), vehicle: Klucel (hydroxypropylcellulose) (HPC) 98 % of control | dose: 25.0 mg/kg/injection, schedule: Q01DX009 (ip), vehicle: Klucel (hydroxypropylcellulose) (HPC) 97 % of control | dose: 25.0 mg/kg/injection, schedule: Q04DX003 (ip), vehicle: Klucel (hydroxypropylcellulose) (HPC) 97 % of control | dose: 50.0 mg/kg/injection, schedule: Q01DX009 (ip), vehicle: Klucel (hydroxypropylcellulose) (HPC) 93 % of control | dose: 50.0 mg/kg/injection, schedule: Q04DX003 (ip), vehicle: Klucel (hydroxypropylcellulose) (HPC) 90 % of control | [2] 94 % of control

C=C1CCOC2(C(O)C(C)(O)CO)NC(=O)C1(O)NC2=O (stereo unspecified)
inactive: [7] 96 % of control | [8] 107 % of control | [9] 104 % of control

OC1OC(CN(CCCl)c2ccccc2)C(O)C(O)C1O (stereo unspecified)
inactive: dose: 18.0 mg/kg/injection, schedule: Q01DX Z (ip), vehicle: methylcellulose (MC) 109 % of control | dose: 27.0 mg/kg/injection, schedule: Q01DX Z (ip), vehicle: methylcellulose (MC) 117 % of control | dose: 60.0 mg/kg/injection, schedule: Q01DX Z (ip), vehicle: methylcellulose (MC) 117 % of control

Cc1ccc(S(=O)(=O)N/N=C2/CC(C)(C)CC(=O)C2(C)C)cc1
inactive: dose: 100.0 mg/kg/injection, schedule: Q04DX002 (ip), vehicle: Klucel (hydroxypropylcellulose) (HPC) 102 % of control | dose: 200.0 mg/kg/injection, schedule: Q04DX002 (ip), vehicle: Klucel (hydroxypropylcellulose) (HPC) 102 % of control | dose: 400.0 mg/kg/injection, schedule: Q04DX002 (ip), vehicle: Klucel (hydroxypropylcellulose) (HPC) 102 % of control

COc1ccc(-n2c(=O)c(N=Nc3ccccc3OC)c(O)n(-c3ccc(C)cc3)c2=S)cc1
inactive: dose: 50.0 mg/kg/injection, schedule: Q01DX001 (ip), vehicle: Klucel (hydroxypropylcellulose) (HPC) 92 % of control | [10] 89 % of control | [11] 91 % of control

FC(F)(F)c1cccc(NC(=S)N2CCOCC2)c1
inactive: [1] 98 % of control | [3] 104 % of control | [4] 96 % of control

COc1ccc(C2C(=O)c3ccccc3C2=O)cc1OC
inactive: [10] 94 % of control | [11] 88 % of control

C[N+]1(C)C2CC(OC(=O)C(CO)c3ccccc3)CC1C1OC12 (stereo unspecified)
inactive: dose: 75.0 mg/kg/injection, schedule: Q01DX001 (ip), vehicle: other 106 % of control

COC(=O)C(C)NCc1ccccc1 (stereo unspecified)
inactive: dose: 100.0 mg/kg/injection, schedule: Q01DX009 (ip), vehicle: saline 95 % of control | dose: 100.0 mg/kg/injection, schedule: Q04DX003 (ip), vehicle: saline 107 % of control | dose: 200.0 mg/kg/injection, schedule: Q01DX009 (ip), vehicle: saline 100 % of control | dose: 200.0 mg/kg/injection, schedule: Q04DX003 (ip), vehicle: saline 107 % of control | dose: 400.0 mg/kg/injection, schedule: Q01DX009 (ip), vehicle: saline 100 % of control | dose: 400.0 mg/kg/injection, schedule: Q04DX003 (ip), vehicle: saline 102 % of control

CC(C)N(CCSC(=O)N1c2ccccc2Sc2cccnc21)C(C)C
inactive: dose: 5.0 mg/kg/injection, schedule: Q04DX003 (ip), vehicle: Klucel (hydroxypropylcellulose) (HPC) 90 % of control | dose: 10.0 mg/kg/injection, schedule: Q04DX003 (ip), vehicle: Klucel (hydroxypropylcellulose) (HPC) 110 % of control

COc1cc(N)c(C(F)(F)F)cc1OC
inactive: dose: 100.0 mg/kg/injection, schedule: Q01DX009 (ip), vehicle: saline with Tween-80 96 % of control | [5] 103 % of control | dose: 200.0 mg/kg/injection, schedule: Q01DX009 (ip), vehicle: saline with Tween-80 94 % of control | [6] 105 % of control | dose: 400.0 mg/kg/injection, schedule: Q01DX009 (ip), vehicle: saline with Tween-80 104 % of control | dose: 400.0 mg/kg/injection, schedule: Q04DX003 (ip), vehicle: saline with Tween-80 104 % of control

CCCCN(CCCC)CC(O)c1cc(-c2ccccc2)nc2c(N)cccc12 (stereo unspecified)
inactive: dose: 75.0 mg/kg/injection, schedule: Q01DX001 (ip), vehicle: saline 98 % of control | dose: 150.0 mg/kg/injection, schedule: Q01DX001 (ip), vehicle: saline 100 % of control | dose: 300.0 mg/kg/injection, schedule: Q01DX001 (ip), vehicle: saline 96 % of control

From PubChem BioAssay AID248 (DTP/NCI, 2004)
